From ChEMBL document CHEMBL5029156 (J Med Chem, 2021)

Columns and labels:
Aldehyde oxidase [1] = target: T1, Aldehyde oxidase (Homo sapiens, UniProt Q06278); assay: Mixed type inhibition of human AOX assessed as inhibitor dissociation constant by measuring changes in slope of the double reciprocal plot using phenanthridine as substrate by Michaelis-Menten analysis; settings: read-out: Kis
T1 sequence (Q06278 whole entry): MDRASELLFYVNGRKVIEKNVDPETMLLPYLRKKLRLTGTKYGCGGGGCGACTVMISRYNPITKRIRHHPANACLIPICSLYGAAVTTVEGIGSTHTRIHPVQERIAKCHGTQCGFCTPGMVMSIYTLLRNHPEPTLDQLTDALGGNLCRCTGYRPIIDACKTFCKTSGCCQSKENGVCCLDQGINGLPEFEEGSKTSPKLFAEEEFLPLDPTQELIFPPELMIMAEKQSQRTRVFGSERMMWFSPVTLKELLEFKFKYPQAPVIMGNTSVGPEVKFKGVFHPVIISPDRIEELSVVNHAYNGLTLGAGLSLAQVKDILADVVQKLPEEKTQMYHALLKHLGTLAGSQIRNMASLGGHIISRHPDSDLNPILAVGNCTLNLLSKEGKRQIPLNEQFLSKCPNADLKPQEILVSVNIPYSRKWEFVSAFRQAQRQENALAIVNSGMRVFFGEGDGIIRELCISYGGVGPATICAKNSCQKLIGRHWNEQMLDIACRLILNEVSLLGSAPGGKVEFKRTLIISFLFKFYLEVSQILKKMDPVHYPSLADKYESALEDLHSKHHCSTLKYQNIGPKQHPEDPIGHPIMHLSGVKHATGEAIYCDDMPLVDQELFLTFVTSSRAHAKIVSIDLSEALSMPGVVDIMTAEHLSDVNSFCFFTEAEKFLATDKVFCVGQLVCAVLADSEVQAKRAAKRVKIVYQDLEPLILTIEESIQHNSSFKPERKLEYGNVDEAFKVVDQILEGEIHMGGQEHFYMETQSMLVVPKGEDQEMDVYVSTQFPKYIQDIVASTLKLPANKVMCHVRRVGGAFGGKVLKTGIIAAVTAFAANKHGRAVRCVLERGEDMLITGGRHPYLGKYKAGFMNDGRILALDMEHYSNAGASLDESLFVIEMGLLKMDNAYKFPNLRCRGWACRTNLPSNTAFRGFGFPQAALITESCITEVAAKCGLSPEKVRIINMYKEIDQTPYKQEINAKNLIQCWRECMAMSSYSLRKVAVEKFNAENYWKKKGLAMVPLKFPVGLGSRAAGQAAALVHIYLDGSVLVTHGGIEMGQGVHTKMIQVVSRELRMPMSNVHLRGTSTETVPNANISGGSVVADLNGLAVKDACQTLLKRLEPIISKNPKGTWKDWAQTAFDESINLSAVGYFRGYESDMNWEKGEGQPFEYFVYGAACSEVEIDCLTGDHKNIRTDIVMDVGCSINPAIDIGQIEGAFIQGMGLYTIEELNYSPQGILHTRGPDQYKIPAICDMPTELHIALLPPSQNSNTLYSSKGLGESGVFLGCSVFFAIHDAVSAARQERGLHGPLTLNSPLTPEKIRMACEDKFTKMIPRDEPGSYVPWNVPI

Aldehyde oxidase [2] = target: T1, Aldehyde oxidase; assay: Mixed type inhibition of human AOX assessed as inhibitor dissociation constant by measuring changes in intercept of the double reciprocal plot using phenanthridine as substrate by Michaelis-Menten analysis; settings: read-out: Kii
Aldehyde oxidase [3] = target: T1, Aldehyde oxidase; assay: Noncompetitive type inhibition of human AOX assessed as inhibitor dissociation constant by measuring slope of the double reciprocal plot using phthalazine as substrate by Michaelis-Menten analysis; settings: read-out: Kis
Aldehyde oxidase [4] = target: T1, Aldehyde oxidase; assay: Noncompetitive type inhibition of human AOX assessed as inhibitor dissociation constant by measuring changes in intercept of the double reciprocal plot using phthalazine as substrate by Michaelis-Menten analysis; settings: read-out: Kii

Row | Ki (Aldehyde oxidase [1]) [µM] | Ki (Aldehyde oxidase [2]) [µM] | Ki (Aldehyde oxidase [3]) [µM] | Ki (Aldehyde oxidase [4]) [µM] | SMILES
1 | 1240 | 1620 | – | – | N=C(N)c1ccccc1 [BENZAMIDINE]
2 | – | – | 1.3 | 1.3 | CSc1ccc2c(c1)N(CCC1CCCCN1C)c1ccccc1S2 (centres undefined) [THIORIDAZINE]
